US10294202B2, “Pyrrolidinones as herbicides” (FMC Corporation, priority 2013, dated 2019)

Assays:
ryegrass, Italian = assay: Test A pre-/postemergence herbicide test; format: in vivo, Lolium multiflorum; conditions: for Plant response rating, Ryegrass, Italian: 0 to 100 scale
Procedure, shortened: (§1)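 Greenhouse pot test with pre- and postemergence application of surfactant-containing solvent formulations. Postemergence plants were 2–10 cm, one- to two-leaf stage. Response scored visually after ~10 days, 0 (no effect) to 100 (complete control).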

rice = assay: Test B flooded paddy test; format: in vivo, Oryza sativa; conditions: 500 g ai/ha, Flood; scale of 0 to 100 where 0 is no effect and 100 is complete control
Procedure, shortened: (§2)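 Plants were grown to the 2-leaf stage, then pots were flooded to 3 cm above the soil and compound was applied directly into the paddy water, with that depth held throughout. After 13 to 15 days in a greenhouse, injury was rated visually against untreated controls on a 0 to 100 scale (100 = complete control).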

pigweed = assay: Test A pre-/postemergence herbicide test; format: in vivo, Amaranthus retroflexus; conditions: for Plant response rating, Pigweed: 0 to 100 scale
Procedure, shortened: as §1

kochia = assay: Test A pre-/postemergence herbicide test; format: in vivo, Kochia scoparia; conditions: for Plant response rating, Kochia: 0 to 100 scale
Procedure, shortened: as §1

ducksalad = assay: Test B flooded paddy test; format: in vivo, Heteranthera limosa; conditions: 500 g ai/ha, Flood; scale of 0 to 100 where 0 is no effect and 100 is complete control
Procedure, shortened: as §2

ragweed = assay: Test A pre-/postemergence herbicide test; format: in vivo, Ambrosia elatior; conditions: for Plant response rating, Ragweed: 0 to 100 scale
Procedure, shortened: as §1

giant foxtail = assay: Test A pre-/postemergence herbicide test; format: in vivo, Setaria faberii; conditions: for Plant response rating, Foxtail, Giant: 0 to 100 scale
Procedure, shortened: as §1

barnyardgrass [1] = assay: Test B flooded paddy test; format: in vivo, Echinochloa crus-galli; conditions: 500 g ai/ha, Flood; scale of 0 to 100 where 0 is no effect and 100 is complete control
Procedure, shortened: as §2

barnyardgrass [2] = assay: Test A pre-/postemergence herbicide test; format: in vivo, Echinochloa crus-galli; conditions: for Plant response rating, Barnyardgrass: 0 to 100 scale
Procedure, shortened: as §1

corn = assay: Test A pre-/postemergence herbicide test; format: in vivo, Zea mays; conditions: Postemergence; for Plant response rating, Corn: 125 g ai/ha, 0 to 100 scale, 0 is no effect, 100 is complete control; for Corn plant response rating (0 to 100 scale, 0 is no effect, 100 is complete control): 500 g ai/ha
Procedure, shortened: as §1

galium = assay: Test A postemergence herbicide test; format: in vivo, Galium aparine; conditions: for Plant response rating, Galium: 125 g ai/ha, 0 to 100 scale, 0 is no effect, 100 is complete control; for Galium plant response rating (0 to 100 scale, 0 is no effect, 100 is complete control): 500 g ai/ha
Procedure, shortened: (§3)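 Potted in loam soil/sand blend; postemergence application at 1–2 leaf stage (2–10 cm). Greenhouse ~10 d. Visual injury vs untreated, 0–100 scale; 100 = complete control.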

sedge, umbrella = assay: Test B flooded paddy test; format: in vivo, Cyperus difformis; conditions: 500 g ai/ha, Flood; scale of 0 to 100 where 0 is no effect and 100 is complete control
Procedure, shortened: as §2

blackgrass = assay: Test A postemergence herbicide test; format: in vivo, Alopecurus myosuroides; conditions: for Plant response rating, Blackgrass: 125 g ai/ha, 0 to 100 scale, 0 is no effect, 100 is complete control; for Blackgrass plant response rating (0 to 100 scale, 0 is no effect, 100 is complete control): 500 g ai/ha
Procedure, shortened: as §3

wheat = assay: Test A pre-/postemergence herbicide test; format: in vivo, Triticum aestivum; conditions: Postemergence; for Plant response rating, Wheat: 125 g ai/ha, 0 to 100 scale, 0 is no effect, 100 is complete control; for Wheat plant response rating (0 to 100 scale, 0 is no effect, 100 is complete control): 500 g ai/ha
Procedure, shortened: as §1

[3] = 125 g ai/ha, visual rating, 0 no effect, 100 complete control, approximately 10 days, preemergence
[4] = Postemergence, 125 g ai/ha, 0 is no effect, 100 is complete control
[5] = preemergence, 500 g ai/ha, 0 is no effect and 100 is complete control

Row | Structure (SMILES) | Plant response rating, Ryegrass, Italian (ryegrass, Italian; [3]) | Plant response rating, Ryegrass, Italian (ryegrass, Italian; [4]) | Ryegrass, Italian plant response rating (0 to 100 scale, 0 is no effect, 100 is complete control) (ryegrass, Italian; Postemergence, 500 g ai/ha) | Plant response rating, Ryegrass, Italian (ryegrass, Italian; [5]) | Plant response rating, Rice (rice) | Plant response rating, Pigweed (pigweed; [3]) | Plant response rating, Pigweed (pigweed; [4]) | Pigweed plant response rating (0 to 100 scale, 0 is no effect, 100 is complete control) (pigweed; Postemergence, 500 g ai/ha) | Plant response rating, Pigweed (pigweed; [5]) | Plant response rating, Kochia (kochia; [3]) | Plant response rating, Kochia (kochia; [4]) | Kochia plant response rating (0 to 100 scale, 0 is no effect, 100 is complete control) (kochia; Postemergence, 500 g ai/ha) | Plant response rating, Kochia (kochia; [5]) | Plant response rating, Ducksalad (ducksalad) | Plant response rating, Ragweed (ragweed; [3]) | Plant response rating, Ragweed (ragweed; [4]) | Ragweed plant response rating (0 to 100 scale, 0 is no effect, 100 is complete control) (ragweed; Postemergence, 500 g ai/ha) | Plant response rating, Ragweed (ragweed; [5]) | Plant response rating, Foxtail, Giant (giant foxtail; [3]) | Plant response rating, Foxtail, Giant (giant foxtail; [4]) | further results
1 | O=C1NCC(c2ccc(Cl)cc2)C1C(=O)Nc1ccccc1C(F)(F)F (stereo not drawn) [Compound 219] | 0 | 0 | 0 | 0 | 0 | 0 | 0 | 0 | 0 | 10 | 0 | 10 | 70 | 100 | 0 | 0 | 0 | 0 | 90 | 60 | Foxtail, Giant plant response rating (0 to 100 scale, 0 is no effect, 100 is complete control) (giant foxtail; Postemergence, 500 g ai/ha): 80; Plant response rating, Foxtail, Giant (giant foxtail; [5]): 90; Plant response rating, Barnyardgrass (barnyardgrass [1]): 40; Plant response rating, Barnyardgrass (barnyardgrass [2]; [3]): 30; Plant response rating, Barnyardgrass (barnyardgrass [2]; [4]): 40; Barnyardgrass plant response rating (0 to 100 scale, 0 is no effect, 100 is complete control) (barnyardgrass [2]; Postemergence, 500 g ai/ha): 50; Plant response rating, Barnyardgrass (barnyardgrass [2]; [5]): 60; Plant response rating, Corn (corn): 0; Corn plant response rating (0 to 100 scale, 0 is no effect, 100 is complete control) (corn): 0; Plant response rating, Galium (galium): 30; Galium plant response rating (0 to 100 scale, 0 is no effect, 100 is complete control) (galium): 60; Plant response rating, Sedge, Umbrella (sedge, umbrella): 0; Plant response rating, Blackgrass (blackgrass): 40; Blackgrass plant response rating (0 to 100 scale, 0 is no effect, 100 is complete control) (blackgrass): 50; Plant response rating, Wheat (wheat): 0; Wheat plant response rating (0 to 100 scale, 0 is no effect, 100 is complete control) (wheat): 0
2 | O=C1NCC(c2ccc(Cl)cc2)C1C(=O)Nc1ccccc1Cl (stereo not drawn) [Compound 220] | 0 | 0 | 20 | 30 | 0 | 0 | 0 | 0 | 20 | 0 | 0 | 40 | 40 | 100 | 0 | 0 | 0 | 0 | 80 | 50 | Foxtail, Giant plant response rating (0 to 100 scale, 0 is no effect, 100 is complete control) (giant foxtail; Postemergence, 500 g ai/ha): 80; Plant response rating, Foxtail, Giant (giant foxtail; [5]): 90; Plant response rating, Barnyardgrass (barnyardgrass [1]): 0; Plant response rating, Barnyardgrass (barnyardgrass [2]; [3]): 30; Plant response rating, Barnyardgrass (barnyardgrass [2]; [4]): 40; Barnyardgrass plant response rating (0 to 100 scale, 0 is no effect, 100 is complete control) (barnyardgrass [2]; Postemergence, 500 g ai/ha): 80; Plant response rating, Barnyardgrass (barnyardgrass [2]; [5]): 80; Plant response rating, Corn (corn): 0; Corn plant response rating (0 to 100 scale, 0 is no effect, 100 is complete control) (corn): 20; Plant response rating, Galium (galium): 0; Galium plant response rating (0 to 100 scale, 0 is no effect, 100 is complete control) (galium): 30; Plant response rating, Sedge, Umbrella (sedge, umbrella): 0; Plant response rating, Blackgrass (blackgrass): 0; Blackgrass plant response rating (0 to 100 scale, 0 is no effect, 100 is complete control) (blackgrass): 40; Plant response rating, Wheat (wheat): 0; Wheat plant response rating (0 to 100 scale, 0 is no effect, 100 is complete control) (wheat): 20
3 | O=C1NCC(c2ccc(Cl)cc2)C1C(=O)Nc1cccc(Cl)c1Cl (stereo not drawn) [Compound 221] | 0 | 0 | 0 | 0 | 0 | 0 | 0 | 0 | 0 | 0 | 0 | 0 | 0 | 0 | 0 | 0 | 0 | 0 | 60 | 0 | Foxtail, Giant plant response rating (0 to 100 scale, 0 is no effect, 100 is complete control) (giant foxtail; Postemergence, 500 g ai/ha): 30; Plant response rating, Foxtail, Giant (giant foxtail; [5]): 80; Plant response rating, Barnyardgrass (barnyardgrass [1]): 0; Plant response rating, Barnyardgrass (barnyardgrass [2]; [3]): 0; Plant response rating, Barnyardgrass (barnyardgrass [2]; [4]): 0; Barnyardgrass plant response rating (0 to 100 scale, 0 is no effect, 100 is complete control) (barnyardgrass [2]; Postemergence, 500 g ai/ha): 0; Plant response rating, Barnyardgrass (barnyardgrass [2]; [5]): 0; Plant response rating, Corn (corn): 0; Corn plant response rating (0 to 100 scale, 0 is no effect, 100 is complete control) (corn): 0; Plant response rating, Galium (galium): 0; Galium plant response rating (0 to 100 scale, 0 is no effect, 100 is complete control) (galium): 0; Plant response rating, Sedge, Umbrella (sedge, umbrella): 0; Plant response rating, Blackgrass (blackgrass): 0; Blackgrass plant response rating (0 to 100 scale, 0 is no effect, 100 is complete control) (blackgrass): 0; Plant response rating, Wheat (wheat): 0; Wheat plant response rating (0 to 100 scale, 0 is no effect, 100 is complete control) (wheat): 0
